# Assays:
# BV2 microglia cell line = assay: WST-1 assay of PMA-induced ROS production; type: cell-based
# From the text: The WST-1 assay allows to measure the ROS produced by cell cultures.
# [1] = cited from earlier work
# human recombinant TSPO = target: T1, human recombinant TSPO (Homo sapiens, UniProt P30536); assay: Microscale thermophoresis (MST) binding to isolated TSPO; conditions: 5 nM red-tagged hTSPO
# T1 construct: purchased LSBio
# T1 sequence (P30536 whole entry): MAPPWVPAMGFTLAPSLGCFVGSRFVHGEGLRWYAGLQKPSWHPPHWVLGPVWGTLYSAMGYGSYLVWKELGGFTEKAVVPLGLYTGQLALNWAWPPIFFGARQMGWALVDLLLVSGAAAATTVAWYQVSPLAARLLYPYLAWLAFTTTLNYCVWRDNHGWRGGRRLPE
# Protocol: The tests were performed by using isolated human recombinant TSPO (purchased from LSBio). The lyophilized protein was resuspended in Tris buffer and stored at −80° C. as per manufacturer instructions. Labelling with a deep-red fluorophore was performed by using the Monolith labeling kit-RED from Nanothemper. Briefly, 200 nM of hTSPO was resuspended in Tris/Sarkosyl 0.1% buffer and then mixed with a solution containing anti-His red-fluorophore at 100 nM concentration. After incubation for 30 minutes at RT, the mixture was centrifuged at 15000 g for 10 minutes at 4° C., to pellet any aggregate or precipitate. […] MST was then performed to assess binding.
smiles,measurement,setting,value
"c1ccc2c(c1)[I+]c1ccccc1-2 [DPI, diphenylene iodonium]",effect on PMA-induced ROS,BV2 microglia cell line; co-incubation with PMA,able to counteract the induction of ROS
COc1cc(C(C)=O)cc(-c2cc(C(C)=O)cc(OC)c2O)c1O [Diapocynin],pKa,[1],7.4
same,concentration inhibiting the PMA-induced increase of ROS,"BV2 microglia cell line; PMA 50 ng/ml, nominal concentration for encapsulated drug",≥ 50 µM
CCC(C)N(C)C(=O)c1cc2ccccc2c(-c2ccccc2Cl)n1 (stereo not drawn) [PK11195],change in MST profile of tagged hTSPO,human recombinant TSPO; ligand 250 μM,significant change in the MST profile
"CCCCCCCCCCCCCC(=O)O[C@@H]1[C@@H](C)[C@@]2(O)[C@@H](C=C(CO)C[C@]3(O)C(=O)C(C)=C[C@@H]23)[C@@H]2C(C)(C)[C@]12OC(C)=O [PMA, phorbol ester myristate acetate]",increase of ROS production as compared to untreated control,BV2 microglia cell line; 50 ng/ml for 6 hours,30-40%
CN1C(=O)CN=C(c2ccc(Cl)cc2)c2cc(Cl)ccc21 [Ro5-4864],change in MST profile of tagged hTSPO / binding,human recombinant TSPO; tested at 500 μM,significant change in the MST profile

# From patent US12161663B2, “Compositions and methods for targeting cells” (Children's Medical Center Corporation, priority 2018, dated 2024)
